In patent publication US8173428B2, “LNA oligonucleotides and the treatment of cancer” (Santaris Pharma A/S, priority 2004, dated 2012):
Where two headings read alike, the source gives them in different places. Oligonucleotides are written 5' to 3', each unit as a sugar letter and its base; * is a phosphorothioate linkage, no mark a phosphodiester; rarer units and linkages stand in square brackets, end groups in braces. Plain capitals give the bases only. l = locked nucleic acid (LNA); [5mC] = 5-methylcytosine; d = 2'-deoxy (DNA)

Key:
15PC3 cells [1] = assay: MTS assay of proliferating viable cells; assay type: cell-based, human
Description: (§1) Culturing of cells: 15PC3 was cultured in DMEM (Sigma) containing 10% fetal bovine serum, Glutamax I and gentamicin at 37° C., 95% humidity and 5% CO2. The cervical carcinoma cell line HeLa were cultured in MEM (Sigma) containing 10% fetal bovine serum, Glutamax I and gentamicin at 37° C., 95% humidity and 5% CO2. When reaching 60-70% confluency, the cells were transfected using Lipofectamine 2000 (5 μg/ml).
Cells were seeded to a density of 10000 cells per well in clear 96 well plate (Scientific Orange no. 1472030100) in DMEM the day prior to transfection. The next day cells were washed once in prewarmed OptiMEM followed by addition of 72 μl OptiMEM containing 5 μg/ml Lipofectamine 2000 (Invitrogen). Cells were incubated for 7 min before adding 18 μl oligonucleotides diluted in OptiMEM. […] After 4 hours of treatment, cells were washed in OptiMEM and 100 μl serum containing DMEM was added. Following oligonucleotide treatment cells were allowed to recover for the period indicated, viable cells were measured by adding 20 μl of the tetrazolium compound [3-(4,5-[…])-5-(3-carboxymethoxyphenyl)-2-(4-sulfophenyl)-2H-tetrazolium, inner salt; MTS] and an electron coupling reagent (phenazine ethosulfate, PES; CellTiter 96® AQueous One Solution Cell Proliferation Assay, Promega). Viable cells were measured at 490 nm and 650 nm in a Powerwave (Biotek Instruments).
The inhibition of growth rate ΔOD (490-650 nm)/h was plotted against the oligonucleotide concentration relative to mock, which was set to 100%. The maximum inhibition of proliferation observed in the MTS assay was 70% (minimum 30%). (Table 5 and FIG. 5)

15PC3 cells [2] = assay: Caspase 3/7 activity (apoptosis) in transfected 15PC3 cells; assay type: cell-based, human; details: for Apoptosis At 5 nM, 24 hours: 24 hours (Table 7, FIG. 3); for Max Apoptosis: 25 nM, 48 hours (Table 7)
Description: as §1
15PC3 cells were seeded to a density of 10000 cells per well in white 96-well plates (Nunc 136101) in DMEM the day prior to transfection. The next day cells were washed once in prewarmed OptiMEM followed by addition of 72 μl OptiMEM containing 5 μg/ml Lipofectamine-2000 (In vitrogen). Cells were incubated for 7 min before adding 18 μl oligonucleotides diluted in OptiMEM. The final oligonucleotide concentration ranged from 0.2 nM to 100 nM. After 4 hours of treatment, cells were washed in OptiMEM and 100 μl DMEM containing serum was added. Following oligonucleotide treatment, cells were allowed to recover for the period indicated before they were removed from the CO2 incubator and equilibrated to room temperature for 15 min. 100 μl of the highly sensitive Caspase 3/7-Glo™ Reagent (Promega) was added directly to the cells, and the plates were incubated for 20 min. Luminescence (luciferase activity) was recorded in a Luminoskan Ascent instrument (Thermo Labsystems). The luciferase activity is measured as Relative Light Units per seconds (RLU/s). The data was analysed using the Ascent software 2.4.2. Graphs of fold induction relative to mock were generated using MS Excel.
Staurosporine, Camptothecine or Taxol induced cells served as positive controls (see FIGS. 3, 6A and Table 4 plus Example 21).

HeLa cells = assay: Annexin V-FITC/PI flow cytometry analysis; assay type: cell-based, human; details: 5 nM or 25 nM
Description: as §1
0.4×10^6 HeLa cells were seeded in T25 flasks one day prior to transfection. On the day of transfection, the cells were washed once in 37° C. OptiMEM followed by addition of 2.8 ml OptiMEM containing 5 μg/ml Lipofectamine-2000 (In vitrogen). Cells were incubated for 7 min before adding 700 μl oligonucleotides diluted in OptiMEM to a final concentration of 5 nM or 25 nM, Mock transfected cells served as control. After 4 hours of treatment cells were washed in OptiMEM and 3 ml culture medium was added. Following oligonucleotide treatment cells were allowed to recover for 48 hours before they were harvested by scraping and washed twice in PBS. 0.2×10^6 cells were incubated with 5 μl Annexin V-FITC and 10 μl propidium iodide (PI-10 mg/ml) and incubated for 15 min at room temperature in the dark. […] Moreover, TRAIL (Apo2L) induced HeLA cells (0.5 μg/ml) were used as positive control. (See FIG. 4)

15PC3 cells [3] = assay: Cell cycle analysis by propidium iodide staining and FACS; assay type: cell-based, human; details: 10 nM, 24 hours, 15PC3 cells
Description: Cell culturing: Human prostate cancer 15PC3 cells (kindly provided by Dr. F Baas, Neurozintuigen Laboratory, AMC, The Netherlands) were seeded to a density of 8×10E5 cells in T75-flasks and grown for two days at 37° C. and 5% CO2 in DMEM supplemented with 10% FBS, Glutamax and Gentamicin. Two days following seeding cells were transfected with 2-10 nM SEQ ID NO. 2 using Lipofectamine at a final conc. of 7.5 μg/ml. Transfections were carried out as described by Dean et al. (1994, JBC 269 p. 16416 16424). In short cells were incubated with Lipofectamine diluted in OptiMEM for 7-10 min followed by the addition of the oligonucleotide to total volume of 8.7 ml per T75 flask. 4 hours following transfection cells were washed in OptiMEM and grown at 37° C. for 12-96 hours in complete growth medium with or without the addition of 2-100 nM Taxol (Sigma Aldrich). Cells were harvested for either mRNA extraction, Caspase 3/7 assay or fixed, stained with PI and analysed by FACS analysis.
Cell culturing and transfections: As in example 13.
Fixation and PI staining: Cells were washed in PBS, harvested and resuspended in 100 μl in ice cold PBS. 900 μl ice cold 70% […] and fixed cells were kept at −20 until use. […]
SEQ ID NO. 2 transfected 15PC3 cells were exposed to different concentrations of Taxol and analysed by Propidium Iodide staining and subsequent FACS analysis (FIG. 7a-c). […]

human Survivin RNA = assay: Survivin mRNA knockdown in transfected 15PC3 cells by real-time PCR; assay type: cell-based
Description: Cell culturing and transfections: 15PC3 cells were seeded in 12-well plates and grown for two days at 37° C. (5% CO2) in DMEM supplemented with 10% FBS, Glutamax I and Gentamicin. When the cells were 60-70% confluent, they were transfected in duplicates with different concentrations of oligonucleotides (0.2-25 nM) using Lipofectamine 2000 (10 μg/ml). Transfections were carried out essentially as described by Dean et al. (1994, JBC 269:16416-16424). In short, cells were incubated for 10 min. with Lipofectamine in OptiMEM followed by addition of oligonucleotide to a total volume of 0.5 ml transfection mix per well. […] Cells were then harvested for protein and RNA analysis.
Total RNA was isolated using RNeasy mini kit (Qiagen). Cells were washed with PBS, and Cell Lysis Buffer (RTL, Qiagen) supplemented with 1% mercaptoethanol was added directly to the wells. After a few minutes, the samples were processed according to manufacturer's instructions.
First strand synthesis was performed using OmniScript Reverse Transcriptase kit according to the manufacturer's instructions (Qiagen). For each sample, 0.5 μg total RNA was adjusted to 12 μl and mixed with 0.2 μl poly (dT)12-18 (0.5 μg/μl) (Life Technologies), 2 μl dNTP mix (5 mM each), 2 μl 10× RT buffer, 0.5 μl RNAguard™ RNase Inhibitor (33 units/ml, Amersham) and 1 μl OmniScript Reverse Transcriptase followed by incubation at 37° C. for 60 min. and heat inactivation at 93° C. for 5 min.
To determine the relative Survivin mRNA level in oligonucleotide treated and untreated cells, the generated cDNA was used in quantitative PCR analysis using an iCycler from BioRad. The cDNA was diluted 5-fold and 8 μl was mixed with 52 μl Taqman probe master mix containing 30 μl Platinum Quantitative PCR SuperMix UDG 2×PCR master mix (Invitrogen), 3 μl 20× Taqman probe and primer mix (forward primer: 5′[…] (SEQ ID NO:29), final 0.9 μM. Reverse primer: 5′[…] (SEQ ID NO:30), final 0.6 μM and taqman probe: FAM-[…]-TAMRA (SEQ ID NO:31), final 0.1 μM) and 19 μl H2O. The 60 μl were dispersed in two wells (96 well plates) with […] in each well. For human Bcl-2 the PCR primers were: […]
The primers and probe were obtained from […] (France). To normalize any variance in sample preparation, the endogenous GAPDH mRNA was quantified using a pre-developed Taqman assay reagent from Applied Biosystems (4310884E) according to manufacturer's Instructions. Two-fold dilutions of cDNA, synthesised from untreated 15PC3 cells (expressing both Survivin and GAPDH), was used to prepare standard curves for the assays. The PCR program was as follows: 50° C. for 2 min., 95° C. for 10 min. followed by 40 cycles of 95° C. 15 sec., 60° C. 1 min. Relative quantities of Survivin mRNA were determined from the calculated threshold cycle using the iCycler IQ Real Time Detection System software.
In accordance with the present invention, a series of oligonucleotides were designed to target different regions of the human Survivin RNA, using published sequences (GenBank accession number NM_001168).
LNA oligonucleotides were evaluated for their potential to knockdown Survivin mRNA in 15PC3 cells. The data are presented as percentage down-regulation relative to mock transfected cells. Transcript steady state was monitored by Real-time PCR and normalised to the GAPDH transcript steady state, see Table 3. Note that all LNA C are 5-methyl-Cytosine.

complementary RNA = assay: Measurement of melting temperature (Tm) of the duplex; assay type: binding; details: 3 μM, 10 mM sodium phosphate/100 mM NaCl/0.1 nM EDTA, pH 7.0
Description: Measurement of melting temperature (Tm) of the compounds: A 3 μM solution of SEQ ID NO. 2 in 10 mM sodium phosphate/100 mM NaCl/[…], pH 7.0 was mixed with its complement DNA/RNA 3 μM in 10 mM sodium phosphate/100 mM NaCl/[…], pH 7.0 at 90° C. for a minute and allowed to cool to room temperature. The Tm of the duplex was then determined by increasing the temperature 1° C./min. from 25 to 95° C. The Tm of SEQ ID NO.

[4] = 48 hours (Table 7, FIG. 5), read-out: Proliferation IC50 (48 hours)
[5] = Survivin mRNA down-regulation relative to mock, normalised to GAPDH, standard deviation in brackets, at least three experiments

5′-Gs^MeCsAs^MeCsasgststsgsasasas^MeCsAsTsc-3′ (lG*l[5mC]*lA*l[5mC]*dA*dG*dT*dT*dG*dA*dA*dA*l[5mC]*lA*lT*dC) [SEQ ID NO. 22]
IC50 (15PC3 cells [1]; [4]): 25 nM | Apoptosis At 5 nM, 24 hours (15PC3 cells [2]; 5 nM): No activity | Max Apoptosis (15PC3 cells [2]): 2.5-fold

^MeCsGs^MeCsAsgsaststsasgsasasAs^MeCs^MeCst (l[5mC]*lG*l[5mC]*lA*dG*dA*dT*dT*dA*dG*dA*dA*lA*l[5mC]*l[5mC]*dT) [SEQ ID NO. 24, negative control oligonucleotide, design 4-8-3-1]
Induction of early and late apoptosis (Annexin V-FITC/PI staining) (HeLa cells): do not induce apoptosis | Effect on the cell cycle (15PC3 cells [3]): no effect on the cell cycle | Proliferation (relative number of viable cells) (15PC3 cells [1]; 0.2, 1, 5, 25 and 100 nM, 13-72 hours after transfection, 15PC3 cells): does not | IC50 (15PC3 cells [1]; 48 hours, transfected 15PC3 cells (Table 5), read-out: Inhibition of proliferation, MTS assay IC50 (48 hours)): 86.9 nM | Maximum Induction Fold-induction of apoptosis, Caspase 3/7 assay (15PC3 cells [2]; 100 nM, 48 hours, 15PC3 cells): 3.1 x (100 nM, 48 hours) | Fold induction of apoptosis, Caspase 3/7 assay (15PC3 cells [2]; 24 hours, 5 nM, 15PC3 cells, relative to mock): 1.5 x

5′-Gs^MeCsAsGstsgsgsastsgsasasGs^MeCs^MeCsA-3′ (lG*l[5mC]*lA*lG*dT*dG*dG*dA*dT*dG*dA*dA*lG*l[5mC]*l[5mC]*lA) [SEQ ID NO. 23, reference compound]
IC50 (human Survivin RNA; [5]): 2.5 nM | IC75 [nM] (human Survivin RNA; [5]): 6.2 (1.6) nM | Apoptosis At 5 nM, 24 hours (15PC3 cells [2]; 5 nM): 2-fold | Max Apoptosis (15PC3 cells [2]): 5.5-fold

TsGsTsGscstsaststscstsgstsgsAsAsTsT (lT*lG*lT*lG*dC*dT*dA*dT*dT*dC*dT*dG*dT*dG*lA*lA*lT*lT) [SEQ ID NO. 21]
IC50 (15PC3 cells [1]; [4]): 25 nM | Apoptosis At 5 nM, 24 hours (15PC3 cells [2]; 5 nM): No activity | Max Apoptosis (15PC3 cells [2]): 2.5-fold | Tm (° C.) complementary RNA (complementary RNA): 62.7 °C

^MeCsTscscscsasgscsgstsgscsgs^MeCs^MeCsa (l[5mC]*lT*dC*dC*dC*dA*dG*dC*dG*dT*dG*dC*dG*l[5mC]*l[5mC]*dA) [SEQ ID NO. 26, reference compound]
Survivin mRNA expression (human Survivin RNA; 10 nM, 24 hours, single agent or combined with control oligonucleotides): does not have any effect on Survivin
